Test: xn = mol fraction of the nth substance listed
Conditions: 101 kPa

SMILES: CCCC[n+]1ccn(C)c1.CS(=O)(=O)[O-] + O
- viscosity (313.15 K, x2 = 0.5596): 26.8 mPa·s
- viscosity (313.15 K, x2 = 0.6542): 17.83 mPa·s
- viscosity (313.15 K, x2 = 0.7015): 14.43 mPa·s
- electrical conductivity (313.15 K, x2 = 0.704): 1.07 S/m
- viscosity (313.15 K, x2 = 0.7495): 11.11 mPa·s
- electrical conductivity (313.15 K, x2 = 0.785): 1.89 S/m
- electrical conductivity (313.15 K, x2 = 0.796): 1.98 S/m
- viscosity (313.15 K, x2 = 0.8016): 8.17 mPa·s
- viscosity (313.15 K, x2 = 0.8521): 5.48 mPa·s
- electrical conductivity (313.15 K, x2 = 0.861): 3.55 S/m
- viscosity (313.15 K, x2 = 0.9254): 2.67 mPa·s
- electrical conductivity (313.15 K, x2 = 0.929): 5.27 S/m
- viscosity (313.15 K, x2 = 0.9503): 1.854 mPa·s
- electrical conductivity (313.15 K, x2 = 0.951): 5.76 S/m
- electrical conductivity (313.15 K, x2 = 0.968): 5.4 S/m
- viscosity (313.15 K, x2 = 0.975): 1.148 mPa·s
- electrical conductivity (314.15 K, x1 = 0.004): 1.61 S/m
- electrical conductivity (314.15 K, x1 = 0.008): 2.86 S/m
- electrical conductivity (314.15 K, x1 = 0.019): 4.58 S/m
- electrical conductivity (314.15 K, x2 = 0.704): 1.1 S/m
- electrical conductivity (314.15 K, x2 = 0.785): 1.96 S/m
- electrical conductivity (314.15 K, x2 = 0.796): 2.04 S/m
- electrical conductivity (314.15 K, x2 = 0.861): 3.71 S/m
- electrical conductivity (314.15 K, x2 = 0.929): 5.42 S/m
- electrical conductivity (314.15 K, x2 = 0.951): 5.97 S/m
- electrical conductivity (314.15 K, x2 = 0.968): 5.53 S/m
- electrical conductivity (315.15 K, x1 = 0.004): 1.64 S/m
- electrical conductivity (315.15 K, x1 = 0.008): 2.91 S/m
- electrical conductivity (315.15 K, x1 = 0.019): 4.65 S/m
- electrical conductivity (315.15 K, x2 = 0.704): 1.14 S/m
- electrical conductivity (315.15 K, x2 = 0.785): 2.02 S/m
- electrical conductivity (315.15 K, x2 = 0.796): 2.11 S/m
- electrical conductivity (315.15 K, x2 = 0.861): 3.75 S/m
- electrical conductivity (315.15 K, x2 = 0.892): 4.58 S/m
- electrical conductivity (315.15 K, x2 = 0.929): 5.54 S/m
- electrical conductivity (315.15 K, x2 = 0.951): 6.11 S/m
- electrical conductivity (316.15 K, x1 = 0.004): 1.67 S/m
- electrical conductivity (316.15 K, x1 = 0.008): 2.97 S/m
- electrical conductivity (316.15 K, x1 = 0.019): 4.73 S/m
- electrical conductivity (316.15 K, x2 = 0.704): 1.18 S/m
- electrical conductivity (316.15 K, x2 = 0.796): 2.17 S/m
- electrical conductivity (316.15 K, x2 = 0.861): 3.84 S/m
- electrical conductivity (316.15 K, x2 = 0.892): 4.75 S/m
- electrical conductivity (316.15 K, x2 = 0.929): 5.63 S/m
- electrical conductivity (316.15 K, x2 = 0.968): 5.71 S/m
- electrical conductivity (317.15 K, x1 = 0.008): 3 S/m
- electrical conductivity (317.15 K, x1 = 0.019): 4.82 S/m
- electrical conductivity (317.15 K, x2 = 0.704): 1.22 S/m
- electrical conductivity (317.15 K, x2 = 0.785): 2.1 S/m
- electrical conductivity (317.15 K, x2 = 0.796): 2.22 S/m
- electrical conductivity (317.15 K, x2 = 0.861): 3.94 S/m
- electrical conductivity (317.15 K, x2 = 0.892): 4.86 S/m
- electrical conductivity (317.15 K, x2 = 0.929): 5.78 S/m
- electrical conductivity (318.15 K, x1 = 0.004): 1.72 S/m
- electrical conductivity (318.15 K, x1 = 0.008): 3.06 S/m
- electrical conductivity (318.15 K, x1 = 0.019): 4.92 S/m
- electrical conductivity (318.15 K, x2 = 0.704): 1.27 S/m
- electrical conductivity (318.15 K, x2 = 0.785): 2.15 S/m
- electrical conductivity (318.15 K, x2 = 0.796): 2.29 S/m
- electrical conductivity (318.15 K, x2 = 0.861): 4.05 S/m
- electrical conductivity (318.15 K, x2 = 0.892): 4.99 S/m
- electrical conductivity (318.15 K, x2 = 0.951): 6.37 S/m
- electrical conductivity (318.15 K, x2 = 0.968): 5.94 S/m
- electrical conductivity (319.15 K, x1 = 0.004): 1.76 S/m
- electrical conductivity (319.15 K, x1 = 0.008): 3.11 S/m
- electrical conductivity (319.15 K, x1 = 0.019): 5.07 S/m
- electrical conductivity (319.15 K, x2 = 0.785): 2.21 S/m
- electrical conductivity (319.15 K, x2 = 0.796): 2.35 S/m
- electrical conductivity (319.15 K, x2 = 0.892): 5.12 S/m
- electrical conductivity (319.15 K, x2 = 0.929): 6.06 S/m
- electrical conductivity (319.15 K, x2 = 0.951): 6.73 S/m
- electrical conductivity (320.15 K, x1 = 0.008): 3.17 S/m
- electrical conductivity (320.15 K, x2 = 0.785): 2.28 S/m
- electrical conductivity (320.15 K, x2 = 0.796): 2.4 S/m
- electrical conductivity (320.15 K, x2 = 0.861): 4.25 S/m
- electrical conductivity (320.15 K, x2 = 0.929): 6.2 S/m
- electrical conductivity (320.15 K, x2 = 0.951): 6.7 S/m
- electrical conductivity (321.15 K, x1 = 0.004): 1.82 S/m
- electrical conductivity (321.15 K, x1 = 0.008): 3.21 S/m
- electrical conductivity (321.15 K, x1 = 0.019): 5.2 S/m
- electrical conductivity (321.15 K, x2 = 0.704): 1.39 S/m
- electrical conductivity (321.15 K, x2 = 0.785): 2.36 S/m
- electrical conductivity (321.15 K, x2 = 0.861): 4.38 S/m
- electrical conductivity (321.15 K, x2 = 0.892): 5.35 S/m
- electrical conductivity (321.15 K, x2 = 0.929): 6.32 S/m
- electrical conductivity (321.15 K, x2 = 0.951): 6.78 S/m
- electrical conductivity (322.15 K, x1 = 0.004): 1.85 S/m
- electrical conductivity (322.15 K, x1 = 0.008): 3.28 S/m
- electrical conductivity (322.15 K, x1 = 0.019): 5.28 S/m
- electrical conductivity (322.15 K, x2 = 0.785): 2.44 S/m
- electrical conductivity (322.15 K, x2 = 0.861): 4.47 S/m
- electrical conductivity (322.15 K, x2 = 0.951): 6.94 S/m
- electrical conductivity (322.15 K, x2 = 0.968): 6.41 S/m
- electrical conductivity (323.15 K, x1 = 0.004): 1.88 S/m
- electrical conductivity (323.15 K, x1 = 0.008): 3.33 S/m
- electrical conductivity (323.15 K, x1 = 0.019): 5.4 S/m
- viscosity (323.15 K, x2 = 0.5596): 19 mPa·s
- viscosity (323.15 K, x2 = 0.6542): 12.84 mPa·s
- viscosity (323.15 K, x2 = 0.7015): 10.57 mPa·s
- electrical conductivity (323.15 K, x2 = 0.704): 1.49 S/m
- viscosity (323.15 K, x2 = 0.7495): 8.22 mPa·s
- electrical conductivity (323.15 K, x2 = 0.796): 2.62 S/m
- viscosity (323.15 K, x2 = 0.8521): 4.18 mPa·s
- electrical conductivity (323.15 K, x2 = 0.861): 4.6 S/m
- electrical conductivity (323.15 K, x2 = 0.892): 5.62 S/m
- viscosity (323.15 K, x2 = 0.9004): 2.87 mPa·s
- viscosity (323.15 K, x2 = 0.9254): 2.13 mPa·s
- electrical conductivity (323.15 K, x2 = 0.929): 6.51 S/m
- electrical conductivity (323.15 K, x2 = 0.968): 6.56 S/m
- viscosity (323.15 K, x2 = 0.975): 0.939 mPa·s
- electrical conductivity (324.15 K, x2 = 0.704): 1.54 S/m
- electrical conductivity (324.15 K, x2 = 0.785): 2.57 S/m
- electrical conductivity (324.15 K, x2 = 0.796): 2.68 S/m
- electrical conductivity (324.15 K, x2 = 0.861): 4.7 S/m
- electrical conductivity (324.15 K, x2 = 0.929): 6.65 S/m
- electrical conductivity (324.15 K, x2 = 0.951): 7.19 S/m
- electrical conductivity (324.15 K, x2 = 0.968): 6.6 S/m
- electrical conductivity (325.15 K, x1 = 0.004): 1.94 S/m
- electrical conductivity (325.15 K, x2 = 0.785): 2.63 S/m
- electrical conductivity (325.15 K, x2 = 0.861): 4.82 S/m
- electrical conductivity (325.15 K, x2 = 0.892): 5.85 S/m
- electrical conductivity (325.15 K, x2 = 0.951): 7.31 S/m
- electrical conductivity (325.15 K, x2 = 0.968): 6.74 S/m
- electrical conductivity (326.15 K, x1 = 0.008): 3.43 S/m
- electrical conductivity (326.15 K, x1 = 0.019): 5.63 S/m
- electrical conductivity (326.15 K, x2 = 0.704): 1.63 S/m
- electrical conductivity (326.15 K, x2 = 0.785): 2.7 S/m
- electrical conductivity (326.15 K, x2 = 0.796): 2.83 S/m
- electrical conductivity (326.15 K, x2 = 0.861): 4.9 S/m
- electrical conductivity (326.15 K, x2 = 0.892): 5.98 S/m
- electrical conductivity (327.15 K, x1 = 0.004): 1.99 S/m
- electrical conductivity (327.15 K, x1 = 0.008): 3.54 S/m
- electrical conductivity (327.15 K, x1 = 0.019): 5.55 S/m
- electrical conductivity (327.15 K, x2 = 0.785): 2.75 S/m
- electrical conductivity (327.15 K, x2 = 0.796): 2.9 S/m
- electrical conductivity (327.15 K, x2 = 0.892): 6.11 S/m
- electrical conductivity (327.15 K, x2 = 0.968): 6.87 S/m
- electrical conductivity (328.15 K, x1 = 0.004): 2.01 S/m
- electrical conductivity (328.15 K, x1 = 0.008): 3.6 S/m
- electrical conductivity (328.15 K, x2 = 0.704): 1.74 S/m
- electrical conductivity (328.15 K, x2 = 0.785): 2.83 S/m

Source: a compilation of properties of binary mixtures (doi:10.1016/j.molliq.2014.08.031)
